In patent US12447156B2, “Treating progressive familial intrahepatic cholestasis (PFIC) with IBAT inhibitors” (ALBIREO AB, priority 2020, dated 2025):

Tested on: children with PFIC
Experiment: PEDFIC 1: treatment responders in analysis of pretreatment serum bile acid parameters
Type: in vivo, human
Experimental: This analysis included children with PFIC aged 0.5-18 years with elevated sBAs and history of significant pruritus who were treated with odevixibat 40 μg/kg/day (n=23) or 120 μg/kg/day (n=19) in […] 1. Pretreatment sBA composition was analyzed using liquid chromatography-tandem mass spectrometry, quantifying serum concentrations of total BAs and primary (cholate, chenodeoxycholate) and secondary (deoxycholate, lithocholate) BAs. sBA concentrations are presented below including and excluding the contribution from ursodeoxycholate (UDCA). Pretreatment serum concentrations of 7α-hydroxy-4-cholesten-3-one (C4) were also quantified. Pretreatment parameters were analysed in treatment responders (Rs; i.e., patients with sBAs≤70 μmol/L or reduced ≥70% and/or a ≥1-point drop in observer-reported pruritus score from baseline to end of treatment) vs nonresponders (NRs).

## CCCCC1(CCCC)CN(c2ccccc2)c2cc(SC)c(OCC(=O)N[C@@H](C(=O)N[C@@H](CC)C(=O)O)c3ccc(O)cc3)cc2S(=O)(=O)N1 [Odevixibat, 1,1-dioxo-3,3-dibutyl-5-phenyl-7-methylthio-8-(N-{(R)-α-[N-((S)-1-carboxypropyl)carbamoyl]-4-hydroxybenzyl}carbamoylmethoxy)-2,3,4,5-tetrahydro-1,2,5-benzothiadiazepine]
PEDFIC 1, 40 μg/kg/day
  proportion of treatment responders (sBAs ≤70 μmol/L or reduced ≥70% and/or ≥1-point drop in pruritus score): 16/23
PEDFIC 1, dose groups combined, 24/42
  proportion of treatment responders (sBAs ≤70 μmol/L or reduced ≥70% and/or ≥1-point drop in pruritus score): 57%
